Results taken from patent US20200407398A1, “Short Proline-Rich Lipopeptide Potentiates Minocycline and Rifampicin Against Multidrug-and Extensively Drug-Resistant Pseudomonas Aeruginosa” (priority 2018, published 2020).
Peptide text beside a SMILES is read from it. * marks the point of attachment. Palmitoyl = CCCCCCCCCCCCCCCC(=O)*

How the values were obtained:
[1] = system: wild-type and MDR/XDR P. aeruginosa clinical isolates; details: checkerboard assay; P. aeruginosa
Procedure: We evaluated the activity of SPRLPs in combination with fifteen clinically-used antibiotics against P. aeruginosa. Antibiotics tested included fluoroquinolones (moxifloxacin, ciprofloxacin and levofloxacin), aminoglycosides (gentamicin, tobramycin and amikacin), cephalosporins (ceftazidime and cefotaxime), carbapenems (meropenem and doripenem), aztreonam, rifampicin, minocycline, colistin and fosfomycin. The SPRLPs were screened initially at a fixed concentration of 8 μg/mL (5 μM) in combination with antibiotics against wild-type P. aeruginosa PAO1. We assessed potentiation by at least a four-fold absolute MIC reduction of the antibiotic, after which synergism was further validated by a conventional checkerboard assay. A fractional inhibitory concentration (FIC) index of ≤0.5, 0.5<x≤4 or >4 was interpreted as synergistic, indifferent or antagonistic interaction, respectively (31). FIC index was obtained by adding the FIC values of the antibiotic and the SPRLP adjuvant. FIC of antibiotics was calculated by dividing the MIC of the antibiotic in the presence of the adjuvant by the MIC of the antibiotic alone. Similarly, the FIC of adjuvant was calculated via dividing the MIC of the adjuvant in the presence of the antibiotic by the MIC of the adjuvant alone.
Isolates used in this study were either obtained from the American Type Culture Collection (ATCC), the Canadian National Intensive Care Unit (CAN-ICU) surveillance study (27) or the Canadian Ward Surveillance (CANWARD) study (28). Clinical isolates belonging to the CAN-ICU and CANWARD studies were recovered from patients suffering a presumed infectious disease entering or admitted in a participating medical center across Canada during the time of study. MDR P. aeruginosa strains in this study refer to those that are resistant to aminoglycosides, fluoroquinolones, cephalosporins, and carbapenems while XDR strains are those that are resistant to aminoglycosides, fluoroquinolones, cephalosporins, carbapenems, aztreonam and penicillin+β-lactamase inhibitor combination (39, 40).
(§1) Microbroth dilution susceptibility test following the Clinical and Laboratory Standards Institute (CLSI) guidelines (32) was performed to assess the in vitro antibacterial activity of SPRLPs. Overnight grown bacterial cultures were diluted in saline to achieve a 0.5 McFarland turbidity, followed by 1:50 dilution in Mueller-Hinton broth (MHB) for inoculation to a final concentration of 5×10^5 colony forming units/mL. The assay was done on a 96-well plate to which the agents of interest were 2-fold serially diluted in MHB and incubated with equal volumes of inoculum at 37° C. for 18 hours. MIC was determined as the lowest concentration to inhibit visible bacterial growth in form of turbidity, which was confirmed using EMax Plus microplate reader (Molecular Devices, USA) at a wavelength of 590 nm. The well containing MHB broth with or without bacterial cells was used as positive or negative control, respectively.
The assay was performed on a 96-well plate, to which the agents of interest was 2-fold serially diluted in working MHB. Prior to serial dilution, SPRLP was added to the working MHB media so that a fixed final concentration of 8 μg/mL (5 μM) SPRLP per well was achieved. To ensure that the assay was working, the MIC determination test of the studied antibiotic (without SPRLP) was included on the same plate. Similar MIC results between the assay comparator and an independent MIC determination test (on a different plate) ensured validity of the synergy test. Overnight grown bacterial cultures were diluted in saline to 0.5 McFarland turbidity, followed by 1:50 dilution in MHB (without SPRLP) and inoculation into each well to a final concentration of approximately 5×10^5 colony forming units/mL. Wells containing only MHB (without SPRLP) with or without bacterial cells were used as positive or negative control, respectively.

S. aureus ATCC 29213 = type: cell-based
Outline: (§2)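 Read-out is visible turbidity, confirmed at 590 nm, with MIC taken as the lowest inhibitory concentration. Bacteria at 5×10^5 CFU/mL were exposed to 2-fold dilutions in Mueller-Hinton broth for 18 hours at 37° C., per CLSI guidelines.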

K. pneumoniae ATCC 13883 = type: cell-based
Outline: as §2

[2] = system: E. coli CAN-ICU 63074 (amikacin-intermediate resistant); type: cell-based
Outline: as §2

E. coli ATCC 25922 = type: cell-based
Outline: as §2

[3] = system: methicillin-resistant S. aureus ATCC 33592; type: cell-based
Outline: as §2

[4] = system: P. aeruginosa wild-type PAO1; type: cell-based
Outline: as §2

[5] = system: methicillin-susceptible Staphylococcus epidermidis CANWARD-2008 81388; type: cell-based; details: methicillin-susceptible CANWARD-2008 81388
Outline: as §2

P. aeruginosa ATCC 27853 = type: cell-based
Outline: as §2

[6] = system: A. baumannii CAN-ICU 63169; type: cell-based
Outline: as §2

[7] = system: S. maltophilia CAN-ICU 62584; type: cell-based
Outline: as §2

[8] = system: P. aeruginosa CAN-ICU 62308 (gentamicin-resistant); type: cell-based
Outline: as §2

[9] = system: P. aeruginosa CANWARD-2011 96846 (gentamicin-, tobramycin-resistant); type: cell-based
Outline: as §2

E. faecium ATCC 27270 = type: cell-based
Outline: as §2

[10] = system: methicillin-resistant S. epidermidis CAN-ICU 61589 (ceftazidime-resistant); type: cell-based; details: methicillin-resistant CAN-ICU 61589 (ceftazidime-resistant)
Outline: as §2

E. faecalis ATCC 29212 = type: cell-based
Outline: as §2

[11] = system: E. coli CAN-ICU 61714 (gentamicin-resistant); type: cell-based
Outline: as §2

[12] = system: E. coli CANWARD-2011 97615 (gentamicin-, tobramycin-, ciprofloxacin-resistant) aac(3′)iia; type: cell-based
Outline: as §2

[13] = system: Gram-negative bacteria E. coli; assay: Microbroth dilution MIC, range over strains; type: cell-based; details: against the E. coli strains of the panel
Procedure: (§3) The synthesized SPRLPs were evaluated for their antibacterial potency against a panel of Gram-positive and Gram-negative bacteria (Tables 2 & 3). Some of the included pathogens were collected from patients visiting or admitted to participating Canadian hospitals through the CAN-ICU (27) and CANWARD (28) national surveillance studies. Antibacterial activity was assessed using minimum inhibitory concentration (MIC) against various clinical pathogens.
as §1

Gram-positive bacteria = assay: Microbroth dilution MIC, range over panel; type: cell-based; details: against Gram-positive bacteria of the panel
Procedure: as §3, §1

pig erythrocytes = type: cell-based
Outline: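 Washed pig erythrocytes in PBS were mixed with 2-fold serial dilutions of peptide and incubated for 1 h at 37° C. Released hemoglobin in the supernatant was read at 570 nm, with PBS and 0.1% Triton X-100 as controls. MHC was the minimum concentration giving 5% hemolysis.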

[14] = system: human liver carcinoma HepG2 cells; type: cell-based; details: read-out: IC50, inhibition of proliferation
Procedure: The CyQuant Direct cell proliferation assay kit (ThermoFisher, Canada) was used to assess the effect of C12-PRP on cell proliferation according to the manufacturer's protocol. Briefly, human embryonic kidney cells (HEK-293) and HepG2 cells were grown in Dulbecco's Modified Eagle's Medium supplemented with 10% fetal bovine serum. The cells were dispersed into 96-well plates (8000 cells/well in 100 μl ). Wells with media but no cells were used as blanks. After 24 hours, varying concentrations of C12-PRP, colistin and Adriamycin® were added to the wells containing cells but also the blanks. After incubation of the cells with the compounds for 48 hours, the CyQuant Direct detection reagent was added to the wells. Plates were incubated at 37° C. for 1 hour and the fluorescence (Excitation 480nm/Emission 535 nm) was read using a SpectraMax M2e (Molecular Devices, USA). As a positive control, CyQuant Direct detection reagent was added to a plate with untreated cells, incubated for 1 hour followed by fluorescence reading. The number of cells in each well was determined by detaching the cells by trypsin followed by counting on a CoulterZM counter to ensure an approximate equal number of cells per well.

Compound | MIC (S. aureus ATCC 29213) [µg/mL] | MIC (K. pneumoniae ATCC 13883) [µg/mL] | MIC [2] [µg/mL] | MIC (E. coli ATCC 25922) [µg/mL] | MIC [3] [µg/mL] | MIC [4] [µg/mL] | MIC [5] [µg/mL] | MIC (P. aeruginosa ATCC 27853) [µg/mL] | MIC [6] [µg/mL] | MIC [7] [µg/mL] | MIC [8] [µg/mL] | MIC [9] [µg/mL] | MIC (E. faecium ATCC 27270) [µg/mL] | MIC [10] [µg/mL] | MIC (E. faecalis ATCC 29212) [µg/mL] | MIC [11] [µg/mL] | MIC [12] [µg/mL] | MIC range (Gram-positive bacteria) [µg/mL] | MHC (minimum concentration that resulted in 5% red blood cell hemolysis) (pig erythrocytes) [µg/mL] | further results
CCCCCCCCCCCCCCCC(=O)N1CCC[C@H]1C(=O)N[C@@H](CCCNC(=N)N)C(=O)N1CCC[C@H]1C(=O)N[C@@H](CCCNC(=N)N)C(=O)N1CCC[C@H]1C(=O)N[C@@H](CCCNC(=N)N)C(=O)N1CCC[C@H]1C(N)=O [Compound C16-PRP, CH3(CH2)14CO-PRPRPRP-NH2] (Palmitoyl-PRPRPRP-NH2) | 8 | 64 | 8 | 16 | 16 | 32 | 4 | 32 | 16 | 64 | 32 | 64 | 8 | 8 | 16 | 8 | 8 | 4 to 16 | 16 | interaction with minocycline (in words) [1]: indifferent interaction; interaction with rifampicin (in words) [1]: indifferent interaction; MIC range [13]: 8 to 16 µg/mL
CCCCCCCCCCCCCCCC(=O)N1CCC[C@H]1C(=O)N[C@@H](CCCNC(=N)N)C(=O)N1CCC[C@H]1C(=O)N[C@@H](Cc1c[nH]c2ccccc12)C(=O)N1CCC[C@H]1C(=O)N[C@@H](CCCNC(=N)N)C(=O)N1CCC[C@H]1C(N)=O [Compound C16-PWP, CH3(CH2)14CO-PRPWPRP-NH2] (Palmitoyl-PRPWPRP-NH2) | 8 | 64 | 16 | 32 | 8 | 32 | 4 | 64 | 64 | 64 | 64 | 64 | 8 | 8 | 8 | 32 | 64 | 4 to 8 | 16 | –
colistin | – | – | – | – | – | – | – | – | – | – | – | – | – | – | – | – | – | – | – | IC50 [14]: 1.5 µM
